Patent publication US8952024B2, “Herbicidal pyrimidone derivatives” (E I du Pont de Nemours and Company, priority 2009, dated 2015)

Tests used:
Format in all cases: in vivo
[1] = system: barnyardgrass (Echinochloa crus-galli); experiment: Test A pre-/postemergence plant response
In short: (§1)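 Each species was treated preemergence via directed soil spray and postemergence at the one- to two-leaf stage, with compounds formulated in a non-phytotoxic solvent plus surfactant. Visual injury relative to untreated controls was rated after about ten days on a 0–100 scale.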

[2] = system: morningglory (Ipomoea spp.); experiment: Test A pre-/postemergence plant response
In short: as §1

[3] = system: wheat (Triticum aestivum); experiment: Test A pre-/postemergence plant response
In short: as §1

[4] = system: pigweed (Amaranthus retroflexus); experiment: Test A pre-/postemergence plant response
In short: as §1

[5] = system: velvetleaf (Abutilon theophrasti); experiment: Test A pre-/postemergence plant response
In short: as §1

[6] = system: corn (Zea mays); experiment: Test A pre-/postemergence plant response
In short: as §1

[7] = system: large crabgrass (Digitaria sanguinalis); experiment: Test A pre-/postemergence plant response
In short: as §1

[8] = system: giant foxtail (Setaria faberii); experiment: Test A pre-/postemergence plant response
In short: as §1

[9] = system: barnyardgrass (Echinochloa crus-galli); experiment: Test B flooded paddy test; conditions: for Plant response rating, Flood, Barnyardgrass: 250 g ai/ha, flooded paddy test, visual rating on 0 to 100 scale (0 no effect, 100 complete control) after 13 to 15 days; for Plant response rating, Barnyardgrass: Flood (flooded paddy test), 13 to 15 days; for Barnyardgrass plant response rating: Flood, 31 g ai/ha, scale 0 to 100 (0 no effect, 100 complete control)
In short: (§2)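 2-leaf seedlings; pots flooded 3 cm over soil at treatment; cpd dosed into floodwater, depth kept constant. Greenhouse 13–15 d. Visual rating vs untreated controls, 0 = no effect, 100 = complete control.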

[10] = system: ducksalad (Heteranthera limosa); experiment: Test B flooded paddy test; conditions: for Plant response rating, Flood, Ducksalad: 250 g ai/ha, flooded paddy test, visual rating on 0 to 100 scale (0 no effect, 100 complete control) after 13 to 15 days; for Plant response rating, Ducksalad: Flood (flooded paddy test), 13 to 15 days; for Ducksalad plant response rating: Flood, 31 g ai/ha, scale 0 to 100 (0 no effect, 100 complete control)
In short: as §2

[11] = system: umbrella sedge (Cyperus difformis); experiment: Test B flooded paddy test; conditions: for Plant response rating, Flood, Sedge, Umbrella: 250 g ai/ha, flooded paddy test, visual rating on 0 to 100 scale (0 no effect, 100 complete control) after 13 to 15 days; for Plant response rating, Sedge, Umbrella: Flood (flooded paddy test), 13 to 15 days; for Sedge, Umbrella plant response rating: Flood, 31 g ai/ha, scale 0 to 100 (0 no effect, 100 complete control)
In short: as §2

[12] = system: rice (Oryza sativa); experiment: Test B flooded paddy test; conditions: for Plant response rating, Flood, Rice: 250 g ai/ha, flooded paddy test, visual rating on 0 to 100 scale (0 no effect, 100 complete control) after 13 to 15 days; for Plant response rating, Rice: Flood (flooded paddy test), 13 to 15 days; for Rice plant response rating: Flood, 31 g ai/ha, scale 0 to 100 (0 no effect, 100 complete control)
In short: as §2

[13] = Postemergence, 125 g ai/ha, 0 to 100 scale where 0 is no effect and 100 is complete control
[14] = Postemergence, 500 g ai/ha, 0 to 100 scale, 0 = no effect, 100 = complete control, approx. ten days
[15] = Preemergence, 125 g ai/ha, 0 to 100 scale, 0 = no effect, 100 = complete control
[16] = Preemergence, 500 g ai/ha, visual injury, 0 to 100 scale (0 no effect, 100 complete control), approx. ten days
[17] = 62 g ai/ha, scale of 0 to 100 where 0 is no effect and 100 is complete control
[18] = 125 g ai/ha, scale 0 to 100, 0 is no effect, 100 is complete control

O=C1CCCC(O)=C1C(=O)c1cnc(-c2ccsc2)n(CC2CCCO2)c1=O (stereo not shown) [Compound 98]
30: Plant response rating, Barnyardgrass [9, 17] | Plant response rating, Barnyardgrass [9, 18]
0: Plant response rating, Barnyardgrass [1, 15] | Plant response rating, Wheat [3, 13] | Plant response rating, Wheat [3, 15] | Plant response rating, Wheat [3, 16] | Plant response rating, Corn [6, 13] | Plant response rating, Corn [6, 15] | Plant response rating, Corn [6, 16] | Barnyardgrass plant response rating [9] | Plant response rating, Flood, Ducksalad [10] | Plant response rating, Ducksalad [10, 17] | Plant response rating, Ducksalad [10, 18] | Ducksalad plant response rating [10] | Plant response rating, Rice [12, 17] | Plant response rating, Rice [12, 18] | Rice plant response rating [12]
70: Plant response rating, Morningglory [2, 15] | Plant response rating, Foxtail, Giant [8, 13]
75: Plant response rating, Flood, Sedge, Umbrella [11] | Plant response rating, Sedge, Umbrella [11, 18]
20: Plant response rating, Wheat [3, 14]
65: Plant response rating, Sedge, Umbrella [11, 17]
40: Plant response rating, Foxtail, Giant [8, 15] | Sedge, Umbrella plant response rating [11] | Plant response rating, Flood, Rice [12]
90: Plant response rating, Barnyardgrass [1, 14] | Plant response rating, Velvetleaf [5, 15] | Plant response rating, Crabgrass, Large [7, 13] | Plant response rating, Crabgrass, Large [7, 15] | Plant response rating, Foxtail, Giant [8, 14]
80: Plant response rating, Barnyardgrass [1, 13] | Plant response rating, Morningglory [2, 16] | Plant response rating, Foxtail, Giant [8, 16]
60: Plant response rating, Barnyardgrass [1, 16] | Plant response rating, Corn [6, 14]
50: Plant response rating, Flood, Barnyardgrass [9]
100: Plant response rating, Morningglory [2, 13] | Plant response rating, Morningglory [2, 14] | Plant response rating, Pigweed [4, 13] | Plant response rating, Pigweed [4, 14] | Plant response rating, Pigweed [4, 15] | Plant response rating, Pigweed [4, 16] | Plant response rating, Velvetleaf [5, 13] | Plant response rating, Velvetleaf [5, 14] | Plant response rating, Velvetleaf [5, 16] | Plant response rating, Crabgrass, Large [7, 14] | Plant response rating, Crabgrass, Large [7, 16]

O=C1CCCC(O)=C1C(=O)c1cnc(-c2ccsc2)n(C2CCCCC2)c1=O [Compound 99]
30: Ducksalad plant response rating [10]
85: Plant response rating, Flood, Sedge, Umbrella [11]
100: Plant response rating, Morningglory [2, 13] | Plant response rating, Morningglory [2, 14] | Plant response rating, Pigweed [4, 13] | Plant response rating, Pigweed [4, 14] | Plant response rating, Pigweed [4, 16] | Plant response rating, Velvetleaf [5, 13] | Plant response rating, Velvetleaf [5, 14] | Plant response rating, Velvetleaf [5, 16] | Plant response rating, Crabgrass, Large [7, 14] | Plant response rating, Crabgrass, Large [7, 16]
80: Plant response rating, Morningglory [2, 16] | Plant response rating, Velvetleaf [5, 15] | Plant response rating, Foxtail, Giant [8, 13] | Plant response rating, Foxtail, Giant [8, 16] | Plant response rating, Flood, Ducksalad [10]
10: Plant response rating, Barnyardgrass [1, 15]
90: Plant response rating, Barnyardgrass [1, 13] | Plant response rating, Barnyardgrass [1, 14] | Plant response rating, Barnyardgrass [1, 16] | Plant response rating, Pigweed [4, 15] | Plant response rating, Crabgrass, Large [7, 13] | Plant response rating, Foxtail, Giant [8, 14]
55: Plant response rating, Flood, Barnyardgrass [9]
20: Plant response rating, Corn [6, 14] | Plant response rating, Barnyardgrass [9, 17] | Plant response rating, Barnyardgrass [9, 18]
65: Plant response rating, Sedge, Umbrella [11, 18]
75: Plant response rating, Ducksalad [10, 18]
60: Plant response rating, Crabgrass, Large [7, 15] | Plant response rating, Flood, Rice [12]
0: Plant response rating, Wheat [3, 13] | Plant response rating, Wheat [3, 14] | Plant response rating, Wheat [3, 15] | Plant response rating, Wheat [3, 16] | Plant response rating, Corn [6, 13] | Plant response rating, Corn [6, 15] | Plant response rating, Corn [6, 16] | Barnyardgrass plant response rating [9] | Plant response rating, Rice [12, 17] | Plant response rating, Rice [12, 18] | Rice plant response rating [12]
50: Plant response rating, Sedge, Umbrella [11, 17] | Sedge, Umbrella plant response rating [11]
40: Plant response rating, Foxtail, Giant [8, 15] | Plant response rating, Ducksalad [10, 17]

CCCn1c(-c2cccc(OC)c2)ncc(C(=O)C2=C(O)CCCC2=O)c1=O [Compound 100]
50: Plant response rating, Foxtail, Giant [8, 15]
20: Barnyardgrass plant response rating [9]
100: Plant response rating, Morningglory [2, 14] | Plant response rating, Pigweed [4, 14] | Plant response rating, Pigweed [4, 16] | Plant response rating, Velvetleaf [5, 13] | Plant response rating, Velvetleaf [5, 14]
30: Plant response rating, Wheat [3, 14] | Plant response rating, Rice [12, 17]
85: Plant response rating, Flood, Ducksalad [10] | Plant response rating, Ducksalad [10, 18] | Plant response rating, Flood, Sedge, Umbrella [11]
90: Plant response rating, Barnyardgrass [1, 14] | Plant response rating, Barnyardgrass [1, 16] | Plant response rating, Morningglory [2, 13] | Plant response rating, Pigweed [4, 13] | Plant response rating, Crabgrass, Large [7, 14] | Plant response rating, Crabgrass, Large [7, 16] | Plant response rating, Foxtail, Giant [8, 14]
60: Plant response rating, Velvetleaf [5, 15] | Plant response rating, Barnyardgrass [9, 18]
35: Ducksalad plant response rating [10] | Plant response rating, Rice [12, 18]
70: Plant response rating, Morningglory [2, 15]
80: Plant response rating, Barnyardgrass [1, 13] | Plant response rating, Morningglory [2, 16] | Plant response rating, Pigweed [4, 15] | Plant response rating, Velvetleaf [5, 16] | Plant response rating, Crabgrass, Large [7, 13] | Plant response rating, Crabgrass, Large [7, 15] | Plant response rating, Foxtail, Giant [8, 13] | Plant response rating, Foxtail, Giant [8, 16] | Plant response rating, Sedge, Umbrella [11, 18]
40: Plant response rating, Barnyardgrass [1, 15] | Sedge, Umbrella plant response rating [11]
75: Plant response rating, Flood, Barnyardgrass [9] | Plant response rating, Ducksalad [10, 17] | Plant response rating, Sedge, Umbrella [11, 17]
0: Plant response rating, Wheat [3, 13] | Plant response rating, Wheat [3, 15] | Plant response rating, Wheat [3, 16] | Plant response rating, Corn [6, 13] | Plant response rating, Corn [6, 14] | Plant response rating, Corn [6, 15] | Plant response rating, Corn [6, 16] | Rice plant response rating [12]
45: Plant response rating, Barnyardgrass [9, 17]

COCCn1c(-c2cccs2)ncc(C(=O)C2=C(O)CCCC2=O)c1=O [Compound 108]
70: Plant response rating, Crabgrass, Large [7, 15] | Plant response rating, Flood, Ducksalad [10]
30: Plant response rating, Barnyardgrass [1, 15] | Plant response rating, Foxtail, Giant [8, 15] | Plant response rating, Flood, Barnyardgrass [9]
15: Plant response rating, Barnyardgrass [9, 18]
95: Plant response rating, Flood, Sedge, Umbrella [11]
60: Plant response rating, Foxtail, Giant [8, 13] | Plant response rating, Ducksalad [10, 18] | Plant response rating, Sedge, Umbrella [11, 18]
10: Plant response rating, Flood, Rice [12]
80: Plant response rating, Morningglory [2, 15] | Plant response rating, Velvetleaf [5, 15]
50: Plant response rating, Ducksalad [10, 17]
40: Plant response rating, Corn [6, 14] | Plant response rating, Foxtail, Giant [8, 16] | Ducksalad plant response rating [10] | Plant response rating, Sedge, Umbrella [11, 17]
90: Plant response rating, Barnyardgrass [1, 13] | Plant response rating, Barnyardgrass [1, 14] | Plant response rating, Barnyardgrass [1, 16] | Plant response rating, Morningglory [2, 16] | Plant response rating, Pigweed [4, 15] | Plant response rating, Velvetleaf [5, 16] | Plant response rating, Crabgrass, Large [7, 13] | Plant response rating, Crabgrass, Large [7, 14] | Plant response rating, Crabgrass, Large [7, 16] | Plant response rating, Foxtail, Giant [8, 14]
100: Plant response rating, Morningglory [2, 13] | Plant response rating, Morningglory [2, 14] | Plant response rating, Pigweed [4, 13] | Plant response rating, Pigweed [4, 14] | Plant response rating, Pigweed [4, 16] | Plant response rating, Velvetleaf [5, 13] | Plant response rating, Velvetleaf [5, 14]
0: Plant response rating, Wheat [3, 13] | Plant response rating, Wheat [3, 14] | Plant response rating, Wheat [3, 15] | Plant response rating, Wheat [3, 16] | Plant response rating, Corn [6, 13] | Plant response rating, Corn [6, 15] | Plant response rating, Corn [6, 16] | Plant response rating, Barnyardgrass [9, 17] | Barnyardgrass plant response rating [9] | Sedge, Umbrella plant response rating [11] | Plant response rating, Rice [12, 17] | Plant response rating, Rice [12, 18] | Rice plant response rating [12]
